Data set [1] addresses T1, full-length beta-Catenin (Uniprot ID P35222) (Homo sapiens, UniProt P35222).
T1 construct: 10 nM full-length beta-Catenin (Uniprot ID P35222)
T1 sequence (P35222 1-781): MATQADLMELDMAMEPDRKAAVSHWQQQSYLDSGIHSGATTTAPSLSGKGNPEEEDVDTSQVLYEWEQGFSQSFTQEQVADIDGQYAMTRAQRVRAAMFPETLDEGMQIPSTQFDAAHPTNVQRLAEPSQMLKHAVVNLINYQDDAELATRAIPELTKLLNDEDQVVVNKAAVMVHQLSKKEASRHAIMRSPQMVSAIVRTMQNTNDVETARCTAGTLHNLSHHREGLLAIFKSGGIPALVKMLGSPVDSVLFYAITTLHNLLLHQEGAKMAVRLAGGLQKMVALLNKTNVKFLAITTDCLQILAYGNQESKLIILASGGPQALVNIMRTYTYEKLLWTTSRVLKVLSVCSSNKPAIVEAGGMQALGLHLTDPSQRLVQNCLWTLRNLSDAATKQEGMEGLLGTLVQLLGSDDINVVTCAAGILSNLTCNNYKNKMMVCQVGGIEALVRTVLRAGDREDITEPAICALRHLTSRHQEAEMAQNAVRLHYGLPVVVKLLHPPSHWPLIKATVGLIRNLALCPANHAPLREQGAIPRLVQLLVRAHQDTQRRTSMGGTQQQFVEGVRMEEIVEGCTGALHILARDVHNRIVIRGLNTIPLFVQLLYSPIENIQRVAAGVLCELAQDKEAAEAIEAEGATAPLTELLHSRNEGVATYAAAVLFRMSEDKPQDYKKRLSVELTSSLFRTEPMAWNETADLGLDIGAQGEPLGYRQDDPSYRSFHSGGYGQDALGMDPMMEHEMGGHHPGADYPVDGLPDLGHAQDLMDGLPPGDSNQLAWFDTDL
Description: Fluorescence polarization IC50 (beta-catenin / 5FAM-TCF4 10-53 competition). As to conditions: read-out: beta-Catenin FP IC50. Format: binding.

The next data set is described as follows: CHI Log D procedure. Format: physicochemical. As to conditions: pH 7.4, CHI Log D.
The next data set can be described thus: Solubility in PBS. It counts as physicochemical. In a few lines:
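Solubility is derived from HPLC peak areas: the ratio of the PBS supernatant peak to a 50 μM DMSO peptide peak, times 50 uM.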

The target of data set [2] is T2, beta-catenin/TCF4 engagement (Homo sapiens, UniProt P35222).
T2 construct: expressed in transfected cells; host or cells: HEK293
T2 sequence (P35222 1-781): T1 sequence (P35222 1-781)
Nature of the data set: Nano-BRET target engagement assay (B-cat-Halo & TCF4-Luc in HEK293 cells). It counts as cell-based. On the technique in general: Bioluminescence resonance energy transfer reports proximity on the nanometre scale.

Setting [3] is: absolute IC50, read-out: NanoBRET Abs IC50.

The structures appear in SMILES notation. Values after ≈ are worked out from the molar mass of the structure shown. Where two headings read alike, the source gives them in different places. A value given as a limit tells only on which side of the number the result lay.

The term IC50 denotes the concentration that inhibits the measured activity by half. By chromatographic logD is commonly meant lipophilicity estimated from chromatographic retention. The term Solubility denotes the dissolved amount per volume that the medium holds. As to `CC(=O)N1CCC[C@]12CC=CCCCC1(CCCC=CCCCOC(=O)N3CC[C@@](C(=O)N[C@@H](Cc4ccsc4)C(=O)N[C@@H](Cc4csc5ccccc45)C(=O)N[C@@H](CCC(N)=O)C(=O)N[C@@H](CCCCNC(=O)c4ccc5ccccc5c4)C(N)=O)(C3)NC(=O)[C@H](CC(N)=O)NC(=O)[C@H](Cc3ccccc3)NC(=O)[C@H](C)NC(=O)[C@H](C)NC(=O)[C@H](CC(=O)O)NC(=O)[C@H](CC(=O)O)NC1=O)NC(=O)[C@H](CC(C)(C)C)NC(=O)[C@H](CC(=O)O)NC2=O` (stereo partly drawn) [I-915, Ac-PL3-Asp-Npg-B5-Asp-Asp-Ala-Ala-Phe-Asn-PyrS2-3Thi-BztA-Gln-[2Napc]Lys-NH2], the IC50 in data set [1] was 0.028 µM; in data set [2] (read-out: NanoBRET Abs IC50) it was 15.5 µM. In “CHI Log D procedure”, the chromatographic logD is 2.33. The Solubility in “Solubility in PBS” (Solubility (uM)) worked out at 41 µM (≈ 90.2 µg/mL).
Regarding `CCCC(=O)NCCCC[C@H](NC(=O)[C@H](CCC(N)=O)NC(=O)[C@H](Cc1csc2ccccc12)NC(=O)[C@H](Cc1ccsc1)NC(=O)[C@]12CCN(C1)C(=O)OCCCC=CCCCC1(CCCC=CC[C@]3(CCCN3C(C)=O)C(=O)N[C@@H](CC(=O)O)C(=O)N[C@@H](CC(C)(C)C)C(=O)N1)C(=O)N[C@@H](CC(=O)O)C(=O)N[C@@H](CC(=O)O)C(=O)N[C@@H](C)C(=O)N[C@@H](C)C(=O)N[C@@H](Cc1ccccc1)C(=O)N[C@@H](CC(N)=O)C(=O)N2)C(N)=O` (stereo partly drawn) [I-917, Ac-PL3-Asp-Npg-B5-Asp-Asp-Ala-Ala-Phe-Asn-PyrS2-3Thi-BztA-Gln-[Bua]Lys-NH2], the IC50 came out at 0.012 µM in data set [1] and 19.7 µM in data set [2] (read-out: NanoBRET Abs IC50). In addition, the chromatographic logD in “CHI Log D procedure” was 2.15. This compound also yielded a Solubility in “Solubility in PBS” (Solubility (uM)) of 44 µM (≈ 93.1 µg/mL).
For `CCCCCCCC(=O)NCCCC[C@H](NC(=O)[C@H](CCC(N)=O)NC(=O)[C@H](Cc1csc2ccccc12)NC(=O)[C@H](Cc1ccsc1)NC(=O)[C@]12CCN(C1)C(=O)OCCCC=CCCCC1(CCCC=CC[C@]3(CCCN3C(C)=O)C(=O)N[C@@H](CC(=O)O)C(=O)N[C@@H](CC(C)(C)C)C(=O)N1)C(=O)N[C@@H](CC(=O)O)C(=O)N[C@@H](CC(=O)O)C(=O)N[C@@H](C)C(=O)N[C@@H](C)C(=O)N[C@@H](Cc1ccccc1)C(=O)N[C@@H](CC(N)=O)C(=O)N2)C(N)=O` (stereo partly drawn) [I-918, Ac-PL3-Asp-Npg-B5-Asp-Asp-Ala-Ala-Phe-Asn-PyrS2-3Thi-BztA-Gln-[Oct]Lys-NH2] the same measures were 0.033 µM, 11.1 µM, 2.49 and 44 µM (≈ 95.6 µg/mL).
On the same counts, the results for `CC(=O)N1CCC[C@]12CC=CCCCC1(CCCC=CCCCOC(=O)N3CC[C@@](C(=O)N[C@@H](Cc4ccsc4)C(=O)N[C@@H](Cc4csc5ccccc45)C(=O)N[C@@H](CCC(N)=O)C(=O)N[C@@H](CCCCNC(=O)C45CC6CC(CC(C6)C4)C5)C(N)=O)(C3)NC(=O)[C@H](CC(N)=O)NC(=O)[C@H](Cc3ccccc3)NC(=O)[C@H](C)NC(=O)[C@H](C)NC(=O)[C@H](CC(=O)O)NC(=O)[C@H](CC(=O)O)NC1=O)NC(=O)[C@H](CC(C)(C)C)NC(=O)[C@H](CC(=O)O)NC2=O` (stereo partly drawn) [I-919, Ac-PL3-Asp-Npg-B5-Asp-Asp-Ala-Ala-Phe-Asn-PyrS2-3Thi-BztA-Gln-[AdamantC]Lys-NH2] are 0.028 µM, 15.2 µM, 2.55 and 44 µM (≈ 97.2 µg/mL).
Turning to `CC(=O)N1CCC[C@]12CC=CCCCC1(CCCC=CCCCOC(=O)N3CC[C@@](C(=O)N[C@@H](Cc4ccsc4)C(=O)N[C@@H](Cc4csc5ccccc45)C(=O)N[C@@H](CCC(N)=O)C(=O)N[C@@H](CCCCNC(=O)C45CC6(C)CC(C)(CC(C)(C6)C4)C5)C(N)=O)(C3)NC(=O)[C@H](CC(N)=O)NC(=O)[C@H](Cc3ccccc3)NC(=O)[C@H](C)NC(=O)[C@H](C)NC(=O)[C@H](CC(=O)O)NC(=O)[C@H](CC(=O)O)NC1=O)NC(=O)[C@H](CC(C)(C)C)NC(=O)[C@H](CC(=O)O)NC2=O` (stereo partly drawn) [I-920, Ac-PL3-Asp-Npg-B5-Asp-Asp-Ala-Ala-Phe-Asn-PyrS2-3Thi-BztA-Gln-[Me3AdamantC]Lys-NH2], the half-inhibitory concentration (IC50) in data set [1] was determined as 0.117 µM; in data set [2] (read-out: NanoBRET Abs IC50), 17.7 µM. The chromatographic logD in the data set “CHI Log D procedure” was 3.08. The “Solubility” value in “Solubility in PBS” stood at 50 µM (≈ 113 µg/mL).
Regarding `CC(=O)N1CCC[C@]12CC=CCCCC1(CCCC=CCCCOC(=O)N3CC[C@@](C(=O)N[C@@H](Cc4ccccc4Cl)C(=O)N[C@@H](Cc4csc5ccccc45)C(=O)N[C@@H](CCC(N)=O)C(N)=O)(C3)NC(=O)[C@H](CC(N)=O)NC(=O)[C@H](Cc3ccccc3)NC(=O)[C@H](C)NC(=O)[C@H](C)NC(=O)[C@H](CN(CC(=O)O)CC(F)(F)F)NC(=O)[C@H](CC(=O)O)NC1=O)NC(=O)[C@H](CC(C)(C)C)NC(=O)[C@H](CC(=O)O)NC2=O` (stereo partly drawn) [I-921, Ac-PL3-Asp-Npg-B5-Asp-TfeGA-Ala-Ala-Phe-Asn-PyrS2-2C1F-BztA-Gln-NH2], the IC50 was 0.008 µM in data set [1] and 4 µM in data set [2] (read-out: NanoBRET IC50). Moreover, the chromatographic logD in the data set “CHI Log D procedure” was found to be 2.26. In the data set “Solubility in PBS” (Solubility (uM)), this compound came in with a Solubility of 24 µM (≈ 49.4 µg/mL).
As to `CC(=O)N1CCC[C@]12CC=CCCCC1(CCCC=CCCCOC(=O)N3CC[C@@](C(=O)N[C@@H](Cc4ccsc4)C(=O)N[C@@H](Cc4csc5ccccc45)C(=O)N[C@@H](CCC(N)=O)C(=O)N[C@@H](CCCCN)C(N)=O)(C3)NC(=O)[C@H](CC(N)=O)NC(=O)[C@H](Cc3ccccc3)NC(=O)[C@H](C)NC(=O)[C@H](C)NC(=O)[C@H](CC(=O)O)NC(=O)[C@H](CC(=O)O)NC1=O)NC(=O)[C@H](CC(C)(C)C)NC(=O)[C@H](CC(=O)O)NC2=O` (stereo partly drawn) [I-939, Ac-PL3-Asp-Npg-B5-Asp-Asp-Ala-Ala-Phe-Asn-PyrS2-3Thi-BztA-Gln-Lys-NH2], the values for the IC50 in data set [1], in data set [2] (read-out: NanoBRET Abs IC50) and in data set [2] (read-out: NanoBRET IC50) were 0.008 µM, 25.1 µM and 18 µM, respectively. In addition, the chromatographic logD in the data set “CHI Log D procedure” came out at 1.79. Moreover, in the data set “Solubility in PBS” (Solubility (uM)), the concentration in solution (Solubility) was 15 µM (≈ 30.7 µg/mL).
Turning to `CC(=O)N1CCC[C@]12CC=CCCCC1(CCCC=CCCCOC(=O)N3CC[C@@](C(=O)N[C@@H](Cc4ccccc4Cl)C(=O)N[C@@H](Cc4csc5ccccc45)C(=O)N[C@@H](CO)C(N)=O)(C3)NC(=O)[C@H](Cc3ccccc3)NC(=O)[C@H](Cc3ccccc3)NC(=O)[C@H](C)NC(=O)[C@H](C)NC(=O)[C@H](CN(CC(=O)O)CC(F)(F)F)NC(=O)[C@H](CC(=O)O)NC1=O)NC(=O)[C@H](CC(C)(C)C)NC(=O)[C@H](CC(=O)O)NC2=O` (stereo partly drawn) [I-990, Ac-PL3-Asp-Npg-B5-Asp-TfeGA-Ala-Ala-Phe-Phe-PyrS2-2C1F-BztA-Ser-NH2], the IC50 amounted to 0.041 µM in data set [1] and 8.8 µM in data set [2] (setting [3]). In the data set “CHI Log D procedure”, this compound had a chromatographic logD of 2.65. The “Solubility” value in the data set “Solubility in PBS” came out at 10 µM (≈ 20.5 µg/mL).
Turning to `CC(=O)N1CCC[C@]12CC=CCCCC1(CCCC=CCCCOC(=O)N3CC[C@@](C(=O)N[C@@H](Cc4ccccc4Cl)C(=O)N[C@@H](Cc4csc5ccccc45)C(=O)N[C@@H](CCC(N)=O)C(N)=O)(C3)NC(=O)[C@H](CC(N)=O)NC(=O)[C@H](Cc3ccccc3)NC(=O)[C@H](CCCCN)NC(=O)[C@H](C)NC(=O)[C@H](CN(CC(=O)O)CC(F)(F)F)NC(=O)[C@H](CC(=O)O)NC1=O)NC(=O)[C@H](CC(C)(C)C)NC(=O)[C@H](CC(=O)O)NC2=O` (stereo partly drawn) [I-1006, Ac-PL3-Asp-Npg-B5-Asp-TfeGA-Ala-Lys-Phe-Asn-PyrS2-2C1F-BztA-Gln-NH2], the figures for the IC50 in data set [1] and in data set [2] (setting [3]) were 0.005 µM and over 20 µM, respectively. The compound also registered a chromatographic logD in “CHI Log D procedure” of 1.7. The Solubility in the data set “Solubility in PBS” (Solubility (uM)) amounted to 30 µM (≈ 63.4 µg/mL).
Regarding `CC(=O)N1CCC[C@]12CC=CCCCC1(CCCC=CCCCOC(=O)N3CC[C@@](C(=O)N[C@@H](Cc4ccccc4Cl)C(=O)N[C@@H](Cc4csc5ccccc45)C(=O)N[C@@H](CCC(N)=O)C(=O)NCCCCCCN)(C3)NC(=O)[C@H](Cc3ccccc3)NC(=O)[C@H](Cc3ccccc3)NC(=O)[C@H](C)NC(=O)[C@H](C)NC(=O)[C@H](CN(CC(=O)O)CC(F)(F)F)NC(=O)[C@H](CC(=O)O)NC1=O)NC(=O)[C@H](CC(C)(C)C)NC(=O)[C@H](CC(=O)O)NC2=O` (stereo partly drawn) [I-1012, Ac-PL3-Asp-Npg-B5-Asp-TfeGA-Ala-Ala-Phe-Phe-PyrS2-2C1F-BztA-Gln-6AmHex], the results for the IC50 in data set [1] and in data set [2] (read-out: NanoBRET Abs IC50) were 0.06 µM and 37.9 µM, respectively. Besides, the chromatographic logD in “CHI Log D procedure” was 2.61. The “Solubility” value in “Solubility in PBS” turned out to be 10 µM (≈ 21.9 µg/mL).
